Reference: patent US11820766B2, “Monoacylglycerol lipase modulators” (Janssen Pharmaceutica NV, priority 2018, dated 2023)
Structures can show the parent of a compound that is named as a salt.

biological target: T1, human MGL from HeLa cells (Homo sapiens, UniProt Q99685); assay: In vitro MGL activity assay: [glycerol-1,3-3H]-oleyl glycerol cleavage by MGL from HeLa cells; assay type: biochemical; conditions: 300 nM [Glycerol-1,3-3H]-oleyl glycerol, one hour
T1 construct: combining endogenously expressed MGL from HeLa cells with test compounds; endogenous in cells; host or cells: HeLa cells / cell homogenates
T1 sequence (Q99685 1-303): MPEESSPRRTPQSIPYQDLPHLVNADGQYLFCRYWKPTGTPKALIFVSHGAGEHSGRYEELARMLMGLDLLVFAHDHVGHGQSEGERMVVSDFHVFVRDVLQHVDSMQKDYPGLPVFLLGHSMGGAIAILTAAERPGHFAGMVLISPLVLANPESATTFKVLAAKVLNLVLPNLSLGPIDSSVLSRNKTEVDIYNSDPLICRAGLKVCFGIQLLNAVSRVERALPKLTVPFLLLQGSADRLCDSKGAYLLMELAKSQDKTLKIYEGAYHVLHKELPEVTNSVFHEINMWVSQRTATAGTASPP
Excerpt: MGL is the predominant hydrolase in HeLa cells/cell homogenates.

Row | Compound | IC50 [nM]
1 | C[C@H]1c2nn(C)c(-c3cc(F)c(F)c(F)c3)c2CCN1C(=O)c1c(C(F)(F)F)cnc2[nH]ccc12 [Example 371, [(7S)-2,7-Dimethyl-3-(3,4,5-trifluorophenyl)-5,7-dihydro-4H-pyrazolo[3,4-c]pyridin-6-yl]-[5-(trifluoromethyl)-1H-pyrrolo[2,3-b]pyridin-4-yl] methanone] | 136
2 | C[C@H]1c2nn(C)c(-c3cc(F)c(F)c(F)c3)c2CCN1C(=O)c1nccc2cc[nH]c12 [Example 376, [(7S)-2,7-Dimethyl-3-(3,4,5-trifluorophenyl)-5,7-dihydro-4H-pyrazolo[3,4-c]pyridin-6-yl]-(1H-pyrrolo[2,3-c]pyridin-7-yl)methanone] | 599
3 | C[C@H]1c2nn(C)c(-c3cc(F)c(F)c(F)c3)c2CCN1C(=O)c1cccn2ncc(Br)c12 [Example 379, (3-Bromopyrazolo[1,5-a]pyridin-4-yl)-[(7S)-2,7-dimethyl-3-(3,4,5-trifluorophenyl)-5,7-dihydro-4H-pyrazolo[3,4-c]pyridin-6-yl]methanone] | 45.5
4 | Cc1cnn2cccc(C(=O)N3CCc4c(nn(C)c4-c4cc(F)c(F)c(F)c4)[C@@H]3C)c12 [Example 380, [(7S)-2,7-Dimethyl-3-(3,4,5-trifluorophenyl)-5,7-dihydro-4H-pyrazolo[3,4-c]pyridin-6-yl]-(3-methylpyrazolo[1,5-a]pyridin-4-yl)methanone] | 44
5 | C[C@H]1c2nn(C)c(-c3cc(F)c(F)c(F)c3)c2CCN1C(=O)c1cnn2cc(F)ccc12 [Example 384, [(7S)-2,7-Dimethyl-3-(3,4,5-trifluorophenyl)-5,7-dihydro-4H-pyrazolo[3,4-c]pyridin-6-yl]-(6-fluoropyrazolo[1,5-a]pyridin-3-yl)methanone] | 44
6 | Cc1cccc2c(C(=O)N3CCc4c(nn(C)c4-c4cc(F)c(F)c(F)c4)[C@@H]3C)c(C3CC3)nn12 [Example 385, (2-Cyclopropyl-7-methyl-pyrazolo[1,5-a]pyridin-3-yl)-[(7S)-2,7-dimethyl-3-(3,4,5-trifluorophenyl)-5,7-dihydro-4H-pyrazolo[3,4-c]pyridin-6-yl]methanone] | 120
7 | COc1ccc2c(C(=O)N3CCc4c(nn(C)c4-c4cc(F)c(F)c(F)c4)[C@@H]3C)cnn2c1 [Example 388, [(7S)-2,7-Dimethyl-3-(3,4,5-trifluorophenyl)-5,7-dihydro-4H-pyrazolo[3,4-c]pyridin-6-yl]-(6-methoxypyrazolo[1,5-a]pyridin-3-yl)methanone.TFA salt] | 60.7
8 | C[C@H]1c2nn(C)c(-c3cc(F)c(F)c(F)c3)c2CCN1C(=O)c1ccc2nccn2c1 [Example 391, [(7S)-2,7-Dimethyl-3-(3,4,5-trifluorophenyl)-5,7-dihydro-4H-pyrazolo[3,4-c]pyridin-6-yl]-imidazo[1,2-a]pyridin-6-yl-methanone] | 103
9 | C[C@H]1c2nn(C)c(-c3cc(F)c(F)c(F)c3)c2CCN1C(=O)c1cccn2ccnc12 [Example 392, [(7S)-2,7-Dimethyl-3-(3,4,5-trifluorophenyl)-5,7-dihydro-4H-pyrazolo[3,4-c]pyridin-6-yl]-imidazo[1,2-a]pyridin-8-yl-methanone] | 711
10 | C[C@H]1c2nn(C)c(-c3cc(F)c(F)c(F)c3)c2CCN1C(=O)c1cnc2cc(F)ccn12 [Example 393, [(7S)-2,7-Dimethyl-3-(3,4,5-trifluorophenyl)-5,7-dihydro-4H-pyrazolo[3,4-c]pyridin-6-yl]-(7-fluoroimidazo[1,2-a]pyridin-3-yl)methanone] | 252
11 | Cc1cn2c(C(=O)N3CCc4c(nn(C)c4-c4cc(F)c(F)c(F)c4)[C@@H]3C)cccc2n1 [Example 394, [(7S)-2,7-Dimethyl-3-(3,4,5-trifluorophenyl)-5,7-dihydro-4H-pyrazolo[3,4-c]pyridin-6-yl]-(2-methylimidazo[1,2-a]pyridin-5-yl)methanone] | 140

These reach a lower IC50. Values come first.

Row | IC50 [nM] | Compound
12 | 1.88 | C[C@H]1c2nn(C)c(-c3cc(F)c(F)c(F)c3)c2CCN1C(=O)c1c(F)cnc2[nH]ccc12 [Example 369, [(7S)-2,7-Dimethyl-3-(3,4,5-trifluorophenyl)-5,7-dihydro-4H-pyrazolo[3,4-c]pyridin-6-yl]-(5-fluoro-1H-pyrrolo[2,3-b]pyridin-4-yl)methanone]
13 | 0.3 | C[C@H]1c2nn(C)c(-c3cc(F)c(F)c(F)c3)c2CCN1C(=O)c1c(F)cnc2c1ccn2C [Example 370, [(7S)-2,7-Dimethyl-3-(3,4,5-trifluorophenyl)-5,7-dihydro-4H-pyrazolo[3,4-c]pyridin-6-yl]-(5-fluoro-1-methyl-pyrrolo[2,3-b]pyridin-4-yl)methanone]
14 | 23.2 | C[C@H]1c2nn(C)c(-c3cc(F)c(F)c(F)c3)c2CCN1C(=O)c1c[nH]c2ncccc12 [Example 373, [(7S)-2,7-Dimethyl-3-(3,4,5-trifluorophenyl)-5,7-dihydro-4H-pyrazolo[3,4-c]pyridin-6-yl]-(1H-pyrrolo[2,3-b]pyridin-3-yl)methanone]
15 | 21 | C[C@H]1c2nn(C)c(-c3cc(F)c(F)c(F)c3)c2CCN1C(=O)c1c[nH]c2ncc(F)cc12 [Example 374, [(7S)-2,7-Dimethyl-3-(3,4,5-trifluorophenyl)-5,7-dihydro-4H-pyrazolo[3,4-c]pyridin-6-yl]-(5-fluoro-1H-pyrrolo[2,3-b]pyridin-3-yl)methanone]
16 | 30.3 | Cc1[nH]c2ncccc2c1C(=O)N1CCc2c(nn(C)c2-c2cc(F)c(F)c(F)c2)[C@@H]1C [Example 375, [(7S)-2,7-Dimethyl-3-(3,4,5-trifluorophenyl)-5,7-dihydro-4H-pyrazolo[3,4-c]pyridin-6-yl]-(2-methyl-1H-pyrrolo[2,3-b]pyridin-3-yl)methanone]
17 | 4.68 | C[C@H]1c2nn(C)c(-c3cc(F)c(F)c(F)c3)c2CCN1C(=O)c1cccn2ncc(F)c12 [Example 377, [(7S)-2,7-Dimethyl-3-(3,4,5-trifluorophenyl)-5,7-dihydro-4H-pyrazolo[3,4-c]pyridin-6-yl]-(3-fluoropyrazolo[1,5-a]pyridin-4-yl)methanone]
18 | 38.8 | C[C@H]1c2nn(C)c(-c3cc(F)c(F)c(F)c3)c2CCN1C(=O)c1ccn2ncc(F)c2c1 [Example 378, [(7S)-2,7-Dimethyl-3-(3,4,5-trifluorophenyl)-5,7-dihydro-4H-pyrazolo[3,4-c]pyridin-6-yl]-(3-fluoropyrazolo[1,5-a]pyridin-5-yl)methanone]
19 | 10.7 | C[C@H]1c2nn(C)c(-c3cc(F)c(F)c(F)c3)c2CCN1C(=O)c1cnn2ccccc12 [Example 381, [(7S)-2,7-Dimethyl-3-(3,4,5-trifluorophenyl)-5,7-dihydro-4H-pyrazolo[3,4-c]pyridin-6-yl]-pyrazolo[1,5-a]pyridin-3-yl-methanone.TFA salt]
20 | 4.26 | Cc1nn2ccccc2c1C(=O)N1CCc2c(nn(C)c2-c2cc(F)c(F)c(F)c2)[C@@H]1C [Example 382, [(7S)-2,7-Dimethyl-3-(3,4,5-trifluorophenyl)-5,7-dihydro-4H-pyrazolo[3,4-c]pyridin-6-yl]-(2-methylpyrazolo[1,5-a]pyridin-3-yl)methanone]
21 | 6.39 | Cc1ccn2ncc(C(=O)N3CCc4c(nn(C)c4-c4cc(F)c(F)c(F)c4)[C@@H]3C)c2c1 [Example 383, [(7S)-2,7-Dimethyl-3-(3,4,5-trifluorophenyl)-5,7-dihydro-4H-pyrazolo[3,4-c]pyridin-6-yl]-(5-methylpyrazolo[1,5-a]pyridin-3-yl)methanone]
22 | 11.7 | Cc1cccc2c(C(=O)N3CCc4c(nn(C)c4-c4cc(F)c(F)c(F)c4)[C@@H]3C)cnn12 [Example 386, [(7S)-2,7-Dimethyl-3-(3,4,5-trifluorophenyl)-5,7-dihydro-4H-pyrazolo[3,4-c]pyridin-6-yl]-(7-methylpyrazolo[1,5-a]pyridin-3-yl)methanone]
23 | 26.4 | COc1cccc2c(C(=O)N3CCc4c(nn(C)c4-c4cc(F)c(F)c(F)c4)[C@@H]3C)cnn12 [Example 387, [(7S)-2,7-Dimethyl-3-(3,4,5-trifluorophenyl)-5,7-dihydro-4H-pyrazolo[3,4-c]pyridin-6-yl]-(7-methoxypyrazolo[1,5-a]pyridin-3-yl)methanone]
24 | 9.94 | COc1ccn2ncc(C(=O)N3CCc4c(nn(C)c4-c4cc(F)c(F)c(F)c4)[C@@H]3C)c2c1 [Example 389, [(7S)-2,7-Dimethyl-3-(3,4,5-trifluorophenyl)-5,7-dihydro-4H-pyrazolo[3,4-c]pyridin-6-yl]-(5-methoxypyrazolo[1,5-a]pyridin-3-yl)methanone]
25 | 12.6 | COc1cccn2ncc(C(=O)N3CCc4c(nn(C)c4-c4cc(F)c(F)c(F)c4)[C@@H]3C)c12 [Example 390, [(7S)-2,7-Dimethyl-3-(3,4,5-trifluorophenyl)-5,7-dihydro-4H-pyrazolo[3,4-c]pyridin-6-yl]-(4-methoxypyrazolo[1,5-a]pyridin-3-yl)methanone]
26 | 6.73 | COc1cc(Cl)cc(-c2c3c(nn2C)[C@H](C)N(C(=O)c2c(C)nc4ccccn24)CC3)c1 [Example 395, [(7S)-3-(3-Chloro-5-methoxy-phenyl)-2,7-dimethyl-5,7-dihydro-4H-pyrazolo[3,4-c]pyridin-6-yl]-(2-methylimidazo[1,2-a]pyridin-3-yl) methanone]
27 | 5.04 | Cc1cc(F)cc(-c2c3c(nn2C)[C@H](C)N(C(=O)c2c(C)nc4ccccn24)CC3)c1 [Example 396, [(7S)-3-(3-Fluoro-5-methyl-phenyl)-2,7-dimethyl-5,7-dihydro-4H-pyrazolo[3,4-c]pyridin-6-yl]-(2-methylimidazo[1,2-a]pyridin-3-yl)methanone]
